Columns and labels:
Type in all cases: cell-based
[1] = system: T47D cells expressing mutant PI3Ka (H1047R); assay: In vitro cell proliferation, T47D cells (CellTiter-Glo); conditions: Homo sapiens, T47D, 72 h, inhibition of proliferation, read-out: Avg T-47D EC50
Procedure, shortened: (§1)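 EC50 values derive from a four-parameter logistic fit of luminescence-based (CellTiter-Glo) inhibition, referenced to 0.1% DMSO and 10 uM Alpelisib controls. Compound exposure lasted 72 h at 37 °C.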

[2] = system: SKBR3 cells express WT PI3Ka; assay: In vitro cell proliferation, SKBR3 cells (CellTiter-Glo); conditions: Homo sapiens, SK-BR-3, 72 h, inhibition of proliferation
Procedure, shortened: as §1

[3] = system: phosphorylation of AKT (pAKT) in T47D cells expressing mutant PI3Ka (H1047R); assay: In vitro cell pAKT (Ser473) HTRF, T47D cells; conditions: Homo sapiens, T47D, 6 h, cellular pAKT, T47D cells, mutant PI3Ka (H1047R), 6 hours; read-out: Avg T-47D IC50
Procedure, shortened: (§2)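 pAKT (Ser473) was quantified by HTRF in lysates from cells exposed 6 h at 37 °C to 10-point compound series, with T47D in insulin-supplemented RPMI/10% FBS and SKBR3 in McCoy's 5a/10% FBS. Controls: 0.1% DMSO (high) and 10 uM alpelisib (low). IC50 from sigmoidal curve fitting.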

[4] = system: phosphorylation of AKT (pAKT) in SKBR3 cells express WT PI3Ka; assay: In vitro cell pAKT (Ser473) HTRF, SKBR3 cells; conditions: Homo sapiens, SK-BR-3, 6 h, cellular pAKT
Procedure, shortened: as §2

| Compound | EC50 [1] [nM] | EC50 [2] [nM] | IC50 [3] [nM] | IC50 [4] [nM] |
| --- | --- | --- | --- | --- |
| Cc1cc([C@@H](C)Nc2cccc(F)c2C(=O)O)c2cc(N3CCN(c4cc(C)ncn4)CC3)n(C)c(=O)c2c1 [Example 328] | 500 to 2000 | 2000 to 15000 | 500 to 2000 | > 15000 |
| Cc1cc([C@@H](C)Nc2ccc(Cl)nc2C(=O)O)c2cc(-c3cnc(C(C)C)nc3)n(C)c(=O)c2c1 [Example 329] | 1 to 500 | 2000 to 15000 | 1 to 500 | 2000 to 15000 |
| Cc1cc([C@@H](C)Nc2ccccc2C(=O)O)c2cc(-c3ccc4c(c3)OC(F)(F)O4)n(C)c(=O)c2c1 [Example 330] | 500 to 2000 | > 15000 | 1 to 500 | > 15000 |
| Cc1cc([C@@H](C)Nc2ccccc2C(=O)O)c2cc(-c3ccc(C4(C#N)CC4)nc3)n(C)c(=O)c2c1 [Example 331] | 1 to 500 | > 15000 | 1 to 500 | > 15000 |
| Cc1cc([C@@H](C)Nc2ccccc2C(=O)O)c2cc(OCC(F)(F)F)n(C)c(=O)c2c1 [Example 332] | 500 to 2000 | > 15000 | 1 to 500 | > 15000 |
| Cc1cc([C@@H](C)Nc2ccccc2C(=O)O)c2cc(OCC3(C)CC3)n(C)c(=O)c2c1 [Example 333] | 1 to 500 | > 15000 | 1 to 500 | > 15000 |
| Cc1cc([C@@H](C)Nc2ccccc2C(=O)O)c2cc(OCc3ccc(C)nc3)n(C)c(=O)c2c1 [Example 334] | 1 to 500 | > 15000 | 1 to 500 | > 15000 |
| Cc1cc([C@@H](C)Nc2ccccc2C(=O)O)c2cc(OCc3ccccn3)n(C)c(=O)c2c1 [Example 335] | 500 to 2000 | > 15000 | 1 to 500 | > 15000 |
| Cc1cc([C@@H](C)Nc2ccc(Cl)nc2C(=O)O)c2cc(N3CCN(CC(F)(F)F)CC3)n(C)c(=O)c2c1 [Example 336] | 1 to 500 | 2000 to 15000 | 1 to 500 | 2000 to 15000 |
| CC(C)c1ncc(-c2cc3c([C@@H](C)Nc4ccccc4C(=O)O)cc(Cl)cc3c(=O)n2C)cn1 [Example 337] | 1 to 500 | > 15000 | 1 to 500 | > 15000 |
| Cc1cc([C@@H](C)Nc2ccccc2C(=O)O)c2cc(-c3cccc(C(F)F)n3)n(C)c(=O)c2c1 [Example 338] | 1 to 500 | 2000 to 15000 | 1 to 500 | > 15000 |
| Cc1cc([C@@H](C)Nc2ccccc2C(=O)O)c2cc(OC3CC3)n(C)c(=O)c2c1 [Example 339] | 500 to 2000 | > 15000 | 1 to 500 | > 15000 |
| Cc1cc([C@@H](C)Nc2ccccc2C(=O)O)c2cc(N3CCN(c4nccs4)CC3)n(C)c(=O)c2c1 [Example 340] | 1 to 500 | > 15000 | 1 to 500 | 2000 to 15000 |
| Cc1cc([C@@H](C)Nc2ccccc2C(=O)O)c2cc(-c3cnc(C(F)F)nc3)n(C)c(=O)c2c1 [Example 341] | 1 to 500 | > 15000 | 1 to 500 | > 15000 |
| Cc1cc([C@@H](C)Nc2ccccc2C(=O)O)c2cc(OCc3ccnc(C)c3)n(C)c(=O)c2c1 [Example 342] | 1 to 500 | > 15000 | 1 to 500 | > 15000 |
| Cc1cc([C@@H](C)Nc2cccc(F)c2C(=O)O)c2cc(N3CCN(c4ccc(C)nc4C)CC3)n(C)c(=O)c2c1 [Example 343] | 1 to 500 | 2000 to 15000 | 1 to 500 | 2000 to 15000 |
| C[C@@H](Nc1ccccc1C(=O)O)c1cc(F)cc2c(=O)n(C)c(-c3cnc(C4CC4)s3)cc12 [Example 344] | 1 to 500 | > 15000 | 1 to 500 | > 15000 |
| C[C@@H](Nc1ccccc1C(=O)O)c1cc(F)cc2c(=O)n(C)c(-c3cnc(OC4CC4)s3)cc12 [Example 345] | 1 to 500 | > 15000 | 1 to 500 | > 15000 |
| COC(C)(C)c1ncc(-c2cc3c([C@@H](C)Nc4cccc(F)c4C(=O)O)cc(C)cc3c(=O)n2C)cc1F [Example 346] | 1 to 500 | > 15000 | 1 to 500 | > 15000 |
| CCOc1ncc(-c2cc3c([C@@H](C)Nc4cccc(F)c4C(=O)O)cc(C)cc3c(=O)n2C)s1 [Example 347] | 1 to 500 | > 15000 | 1 to 500 | > 15000 |
